Results published in patent publication US6297274A, “Nonpeptide endothelin antagonists with increased water solubility” (priority 1998, dated 2001).
Where a name gives a salt, the structure may show the parent alone. Read-outs that look alike come from different tables or passages of the source.

Columns and labels:
human ETA R = target: T1, human ETA R (Homo sapiens, UniProt P25101); experiment: biochemical; format: binding; settings: read-out: HERBA-A IC50
T1 sequence (P25101 21-427): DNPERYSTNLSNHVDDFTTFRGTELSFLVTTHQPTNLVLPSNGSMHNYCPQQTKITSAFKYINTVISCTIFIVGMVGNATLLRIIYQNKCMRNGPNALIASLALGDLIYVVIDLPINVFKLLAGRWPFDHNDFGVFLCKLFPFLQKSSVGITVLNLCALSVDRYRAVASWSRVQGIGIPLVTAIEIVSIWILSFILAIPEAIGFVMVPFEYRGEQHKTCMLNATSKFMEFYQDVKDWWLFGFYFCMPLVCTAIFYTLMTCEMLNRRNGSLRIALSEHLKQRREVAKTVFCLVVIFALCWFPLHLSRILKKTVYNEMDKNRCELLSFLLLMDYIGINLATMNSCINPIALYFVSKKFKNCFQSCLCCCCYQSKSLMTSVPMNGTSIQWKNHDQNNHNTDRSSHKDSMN
Method: (§1) The following cultured cells were used in binding experiments: CHO-K1 cells expressing recombinant human ETB R (HERBA B), or Ltk-cells expressing human ETA R (HERBA A). […] Membranes were prepared from cultured cells by lysing cells in cold lysis buffer (5 mM HEPES, 2 mM EDTA, pH 7.4) and homogenizing with a Dounce "A" homogenizer. […] Radioligand and competing ligands were prepared in binding buffer containing 20 mM Tris, 2 mM EDTA, and 0.1% BSA.
(§2) The assay was terminated by filtration over Whatman GF/B filters that were presoaked with 50 mM Tris, pH 7.4, containing 0.2% BSA and 100 μM bacitracin. […] binding was defined as total binding minus nonspecific binding.

recombinant human ETB R = target: T2, recombinant human ETB R (Homo sapiens, UniProt P24530); experiment: biochemical; format: binding; settings: read-out: HERBA-B IC50
T2 sequence (P24530 27-442): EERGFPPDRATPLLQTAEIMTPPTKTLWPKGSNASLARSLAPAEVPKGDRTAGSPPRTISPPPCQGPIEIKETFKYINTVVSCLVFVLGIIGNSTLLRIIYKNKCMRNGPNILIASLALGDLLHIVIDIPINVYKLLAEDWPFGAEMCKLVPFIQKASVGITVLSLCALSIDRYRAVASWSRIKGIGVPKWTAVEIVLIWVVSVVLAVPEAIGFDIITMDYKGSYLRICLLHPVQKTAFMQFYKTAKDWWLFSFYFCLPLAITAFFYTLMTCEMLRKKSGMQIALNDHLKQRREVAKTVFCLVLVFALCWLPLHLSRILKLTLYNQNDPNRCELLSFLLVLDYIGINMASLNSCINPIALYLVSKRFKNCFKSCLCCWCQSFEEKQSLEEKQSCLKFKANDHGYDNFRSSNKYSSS
Method: as §1, §2

[1] = target: T3, ET-1 stimulated vasoconstriction, rabbit femoral artery (Oryctolagus cuniculus, UniProt A5A8K3); settings: read-out: VERA-A pA2 (converted)
T3 sequence (A5A8K3 21-427): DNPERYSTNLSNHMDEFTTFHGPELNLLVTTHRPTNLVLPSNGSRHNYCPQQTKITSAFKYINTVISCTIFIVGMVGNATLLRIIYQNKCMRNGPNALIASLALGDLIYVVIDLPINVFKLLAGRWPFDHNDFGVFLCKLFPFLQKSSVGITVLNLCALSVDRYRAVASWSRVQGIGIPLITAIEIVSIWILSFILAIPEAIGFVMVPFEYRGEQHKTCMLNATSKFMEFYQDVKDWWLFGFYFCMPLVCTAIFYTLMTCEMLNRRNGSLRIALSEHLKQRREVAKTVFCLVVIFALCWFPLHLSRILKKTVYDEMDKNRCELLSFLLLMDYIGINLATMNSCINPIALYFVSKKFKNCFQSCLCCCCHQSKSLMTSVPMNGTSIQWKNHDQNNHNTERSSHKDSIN
Source text: In vitro and in vivo studies with a series of hexapeptide endothelin antagonists. J. Cardiovasc. […] The data are presented as pA2 values.

physchem = settings: water
[2] = test system: cerebral hemisphere of cats following middle cerebral artery occlusion; settings: IV; cited from earlier work
[3] = test system: rat hypoxia model of hypertension; settings: cited from earlier work
[4] = test system: ischemic brain injury in rats; settings: oral; cited from earlier work
[5] = human cloned receptor ETA, [125I]-ET-1 (40 pM), 2 hours, 37 °C
[6] = human cloned receptor ETB, [125I]-ET-1 (40 pM), 2 hours, 37 °C

Structure (SMILES)	IC50 (human ETA R; [5]) [nM]	IC50 (recombinant human ETB R; [6]) [nM]	also measured
COc1ccc(C2(O)OC(=O)C(c3ccc4c(c3)OCO4)=C2Cc2cc(OC)c(OC)c(OCC(=O)NCCN3CCOCC3)c2)cc1 (stereo not shown) [Example 3, 2-{5-[4-Benzo[1,3]dioxol-5-yl-2-hydroxy-2-(4-methoxy-phenyl)-5-oxo-2,5-dihydro-furan-3-ylmethyl]-2,3-dimethoxy-phenoxy}-N-(2-morpholin-4-yl-ethyl)-acetamide]	2	> 2500	–
COc1ccc(C2(O)OC(=O)C(c3ccc4c(c3)OCO4)=C2Cc2cc(OC)c(OC)c(OCC(=O)NCCN3CCOCC3)c2)cc1 (stereo not shown) [Example 4]	1	–	Kb [1]: 100 nM
COc1ccc(C2(O)OC(=O)C(c3ccc4c(c3)OCO4)=C2Cc2cc(OC)c(OCCN3CCOCC3)c(OCCN3CCOCC3)c2)cc1 (stereo not shown) [Example 9, 3-Benzo[1,3]dioxol-5-yl-5-hydroxy-4-[3-methoxy-4,5-bis-(2-morpholin-4-yl-ethoxy)-benzyl]-5(4-methoxy-phenyl)-5H-furan-2-one 2-hydroxyethanesulfonate]	180	> 25000	–
COc1ccc(C2(O)OC(=O)C(c3ccc4c(c3)OCO4)=C2Cc2cc(OC)c(OC)c(OCCN(C)C)c2)cc1 (stereo not shown) [Example 11, 3-Benzo[1,3]dioxyl-5-yl-4-[3-(2-dimethylamino-ethoxy)-4,5-dimethoxy-benzyl]-5-hydroxy-5-(4-methoxy-phenyl)-5H-furan-2-one 2-hydroxyethanesulfonate]	–	–	solubility (physchem): > 25 mg/mL
COc1ccc(C2(O)OC(=O)C(c3cc(OC)cc(OC)c3)=C2Cc2cc(OC)c(OC)c(OCCN(C)C)c2)cc1 (stereo not shown) [Example 16]	2	> 2500	–
COc1ccc(C2(O)OC(=O)C(c3cc(OC)cc(OC)c3)=C2Cc2cc(OC)c(OC)c(OCCCN3CCN(C)CC3)c2)cc1 (stereo not shown) [Example 17, 4-{3,4-Dimethoxy-5-[3-(4-methyl-piperazzin-1-yl)-propoxy]-benzyl}-3-(3,5-dimethoxy-phenyl)-5-hydroxy-5-(4-methoxy-phenyl)-5-hydroxy-5-(4-methoxy-phenyl)-5H-furan-2-one]	12.5	> 2500	–
COc1ccc(C2(O)OC(=O)C(c3ccc4c(c3)OCO4)=C2Cc2cc(OC)c(OC)c(OCCCS(=O)(=O)O)c2)cc1 (stereo not shown) [Example 26]	–	–	solubility (physchem): > 80 mg/mL
COc1cc(CC2=C(c3ccc4c(c3)OCO4)C(=O)OC2(O)c2ccc(OCCN3CCOCC3)cc2)cc(OC)c1OC (stereo not shown) [Example 27, 3-Benzo[1,3]dioxol-5-yl-5-hydroxy-5-[4-(2-morpholin-4-ethoxy)-phenyl]-4-(3,4,5-trimethoxy-benzyl)-5H-furan-2-one]	14	3350	–
COc1cc(CC2=C(c3ccc4c(c3)OCO4)C(=O)OC2(O)c2ccc(OCCN3CCOCC3)cc2)cc(OC)c1OC (stereo not shown) [Example 28, 3-Benzo[1,3]dioxol-5-yl-5-hydroxy-5-[4-(2-morpholin-4-yl-ethoxy)-phenyl]-4-(3,4,5-trimethoxy-benzyl)-5H-furan-2-one 2-hydroxyethanesulfonate]	–	4100	IC50 (human ETA R): 12 nM
COc1cc(CC2=C(c3ccc4c(c3)OCO4)C(=O)OC2(O)c2ccc(OCCCN(C)C)cc2)cc(OC)c1OC (stereo not shown) [Example 29, 3-Benzo[1,3]dioxol-5-yl-5-[4-(3-dimethylamino-propoxy)-phenyl]-5-hydroxy-4-(3,4,5-trimethoxy-benzyl)-5H-furan-2-one]	40	17000	–
COc1cc(CC2=C(c3ccc4c(c3)OCO4)C(=O)OC2(O)c2ccc(OCCCN(C)C)cc2)cc(OC)c1OC (stereo not shown) [Example 30, 3-Benzo[1,3]dioxol-5-yl-5-[4-(3-dimethylamino-propoxy)-phenyl]-5-hydroxy-4-(3,4,5-trimethoxy-benzyl)-5H-furan-2-one 2-hydroxyethanesulfonate]	180	> 2500	–
CNc1cccc(CC2=C(c3ccc4c(c3)OCO4)C(=O)OC2(O)c2ccc(OC)cc2)c1 (stereo not shown) [Example 31, 3-Benzo[1,3]dioxol-5-yl-5-hydroxy-5-(4-methoxy-phenyl)-4-(3-methylamino-benzyl)-5H-furan-2-one]	2	2700	–
COc1ccc(C2(O)OC(=O)C(c3ccc4c(c3)OCO4)=C2Cc2cccc(CN(C)C)c2)cc1 (stereo not shown) [Example 32]	4	900	–
COc1ccc(C2(O)OC(=O)C(c3ccc4c(c3)OCO4)=C2Cc2cccc(CN(C)C)c2)cc1 (stereo not shown) [Example 33, 3-Benzo[1,3]dioxol-5-yl-4-(3-dimethylaminomethyl-benzyl)-5-hydroxy-5-(4-methoxy-phenyl)-5H-furan-2-one 2-hydroxyethanesulfonate]	1.2	470	Kb ([1]; ET-1 stimulated vasoconstriction, rabbit femoral artery): 200 nM
COc1ccc(C2(O)OC(=O)C(c3cc(OC)c4c(c3)OCO4)=C2Cc2cccc(CN(C)C)c2)cc1 (stereo not shown) [Example 34, 4-(3-Dimethylaminomethyl-benzyl)-5-hydroxy-3-(7-methoxy-benzo[1,3]dioxol-5-yl)-5-(4-methoxy-phenyl)-5H-furan-2-one]	0.6	110	–
COc1ccc(C2(O)OC(=O)C(c3cc(OC)c4c(c3)OCO4)=C2Cc2cccc(CN(C)C)c2)cc1 (stereo not shown) [Example 35, 4-(3-Dimethylaminomethyl-benzyl)-5-hydroxy-3-(7-methoxy-benzo[1,3]dioxol-5-yl)-5-(4-methoxy-phenyl)-5H-furan-2-one 2-hydroxyethanesulfonate]	1	210	–
COc1ccc(C2(O)OC(=O)C(c3ccc4c(c3)OCO4)=C2Cc2cc(OC)c(OC)c(OCCN3CCOCC3)c2)cc1 (stereo not shown) [Example 37, 3-Benzo[1,3]dioxol-5-yl-4-[3,4-dimethoxy-5-(2-morpholin-4-yl-ethoxy)-benzyl]-5-hydroxy-(4-methoxy-phenyl)-5-furan-2-one 2-hydroxyethanesulfonate]	–	–	solubility (physchem): > 25 mg/mL
COc1ccc(C2(O)OC(=O)C(c3ccc4c(c3)OCO4)=C2Cc2cc(OC)c(OC)c(OC)c2)c(OCCCN(C)C)c1 (stereo not shown) [Example 38, 3Benzo[1,3]dioxol-5-yl-5-[2-(3-dimethylamino-propoxy)-4-methoxy-phenyl]-5-hydroxy-4-(3,4,5-trimethoxy-benzyl)-5H-furan-2-one]	1	800	Kb [1]: 100 nM
COc1ccc(C2(O)OC(=O)C(c3ccc4c(c3)OCO4)=C2Cc2cc(OC)c(OC)c(OC)c2)cc1 (stereo not shown) [PD 156707]	–	–	volume of ischemic damage in the cerebral hemisphere [2]: significantly reduced; pulmonary vascular resistance and pulmonary arterial pressure [3]: provide protection in a rat hypoxia model of hypertension by lowering the increase in pulmonary vascular resistance and pulmonary arterial pressure
CCCOc1ccc2c(c1)[C@@H](c1ccc(OC)cc1OCCO)[C@H](C(=O)O)[C@H]2c1ccc2c(c1)OCO2 [SB 217242]	–	–	reduction of ischemic brain injury [4]: Reduction of ischemic brain injury in rats was also demonstrated
COc1ccc(C(=O)C(Cc2cccc(CN(C)C)c2)=C(C(=O)O)c2cc(OC)c3c(c2)OCO3)cc1 [sodium salt]	–	–	IC50 (human ETA R): 2 nM; IC50 (recombinant human ETB R): 300 nM
